# Measured values as given in patent US10301320B2, “Compositions and methods of modulating 15-PGDH activity” (CASE WESTERN RESERVE UNIVERSITY, priority 2012, dated 2019).
# “Also recorded” adds a separate entry of the source. Read-outs that look alike come from different tables or passages of the source.
# Legend:
# [1] = test system: wild-type mouse bone marrow; assay: Hematopoietic colonies from bone marrow treated ex vivo; type: cell-based; conditions: 1 uM, ex vivo on ice for 2 hours; compared with SW033291
# Description: Treated marrow is again then plated into methylcellulose for counting of hematopoietic colonies.
# [2] = test system: V9m reporter cell line expressing a 15-PGDH luciferase fusion construct; assay: 15-PGDH-luciferase fusion gene reporter induction, V9m cell line; type: cell-based; conditions: […], % increased luciferase activity over basal level
# Description: These cell lines are Vaco-9m (V9m), LS174T, Vaco503 (V503). […] Value of 1.0 on the Y-axis is the basal level of reporter activity in cells treated with drug free DMSO vehicle.
# This Example provides data on a group of structural analogues of SW033291. Data provided includes level of induction of a 15-PGDH-luciferase fusion gene reporter, recorded as % increased luciferase activity over basal level, in three colon cancer cell lines, V9m, V503, and LS174T, engineered to contain the reporter, and treated with either 2.5 uM or 7.5 uM compound (i.e., Values are recorded on a scale where 100 indicates of doubling of luciferase activity over baseline level).
# FIGS. 27(A-C) show graphs that show the level of compound's activity in inducing the 15-PGDH-luciferase fusion reporter in three different test cell line backgrounds, V9m, LS174T, and V503. Each compound was tested at two concentrations, 2.5 uM, and 7.5 uM. Y-axis is luciferase activity.
# Data provided include level of induction of a 15-PGDH-luciferase fusion gene reporter, recorded as % induction of luciferase activity over basal level, in three colon cancer cell lines, V9m, V503, and LS174T, engineered to contain the reporter, and treated with either 2.5 uM or 7.5 uM compound. […] Additionally, for selected compounds is recorded the decrease in PGE2 levels in the media of compound treated A549 cells that have been stimulated with IL-1 beta. Additionally recorded for selected compounds is the effect on A549 cell viability as measured by a CellTiter-Glo assay, and the effect of compounds on A549 cell colony formation.
# [3] = test system: 15-PGDH-luciferase fusion reporter in V9m, LS174T and V503 cell lines; assay: 15-PGDH-luciferase fusion gene reporter induction in three colon cancer cell lines (stated jointly); type: cell-based
# [4] = test system: A549 cells; assay: PGE2 levels in medium of IL1-beta stimulated A549 cells; type: cell-based; conditions: for PGE2 levels achieved: IL-1β 16 h, compound 8 h, highest level of titration; for Effect on PGE2 levels in medium, in words: IL1-beta stimulated A549 cells
# [5] = test system: 15-PGDH mRNA in colon cancer cell lines; assay: 15-PGDH mRNA levels by real-time PCR; type: cell-based; conditions: treated colon cancer cell lines, real-time PCR
# Description: In these studies parental cell lines (not containing the 15-PGDH-luciferase reporter) are employed.
# [6] = molecular target: T1, recombinant 15-PGDH protein (Homo sapiens (Human), UniProt P15428); assay: Inhibition of enzymatic activity of recombinant 15-PGDH in vitro; type: biochemical; conditions: for inhibition at […]: read-out: Enzyme inhibition % ([…]), recombinant 15-PGDH, […] compound;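 on all read-outs here: activity of recombinant human 15-PGDH assayed in vitro using PGE2 as the substrate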
# [7] = molecular target: T1, recombinant 15-PGDH protein; assay: Melting temperature shift of recombinant 15-PGDH (SYPRO Orange); type: binding
# [8] = test system: A549 cells; assay: Cellular toxicity on A549 cells (CellTiter-Glo, cell numbers); type: cell-based; conditions: for Toxicity, CellTiter-Glo: 24 hours, up to 10 uM in FIG. 38
# Description: Time to inhibition refers to the time needed to inhibit the generation of NADH by 15-PGDH from the moment with drug is added into the reaction mix. Delta™ refers to the shift in melting temperature of recombinant 15-PGDH in the presence of drug (with cofactor NADH also present). Concentration of Full Cell Line Reporter Induction refers to the concentration of drug that needs to be added to reporter cell line to achieve maximal induction of the 15-PGDH-luciferase gene fusion reporter cassette, as measured by luciferase assays. Hepatocyte stability refers to the half-life of compound in the presence of hepatocytes in culture. Toxicity refers to the concentration of compound needed to decrease cell numbers in a cell culture assay.
# FIGS. 38(A-C) show assays of cellular toxicity on A549 cells at 24 hours of 15-PGDH inhibitors as assayed by CellTiter-Glo measurement.
# FIGS. 84(A-C) show at left (84A) activity in lowering PGE2 levels in media of A549 cells that are stimulated to produce PGE2 by treatment with IL1-beta.
# [9] = Metabolic stability with murine liver S9; type: in vitro ADME
# Description: SW054384 (2 mM in DMSO) was incubated with Murine S9 (Lot KWB) fraction and Phase I (NADPH Regenerating System) cofactors for 0-240 minutes. Reactions were quenched with a 1 mL (1:1) of MeOH/(+)IS/0.2% Formic Acid, vortexed for 15 seconds, incubated at RT for 10 minutes and spun for 5 minutes at 2400 rpms. […] Supernatant (800 μL) was transferred to an HPLC vial (w/out insert) and analyzed by HPLC/MS. A: dH2O+0.1% FA B: MeOH+0.1% FA
# SW125991 (2 mM in DMSO) was incubated with Murine S9 (Lot KWB) fraction and Phase I (NADPH Regenerating System) cofactors for 0-240 minutes. Reactions were quenched with 1 mL (1:1) of methanol containing 0.2% formic acid and 100 ng/ml IS (IS final conc.=50 ng/ml). Samples were vortexed for 15 seconds, incubated at RT for 10 minutes and spun for 5 minutes at 2400 rpm. […] Supernatant (800 μL) was transferred to an HPLC vial (w/out insert). Analyzed by Qtrap 3200 mass spectrometer.
# [10] = read-out: Enzyme inhibition % (2.5 μM)
# [11] = read-out: Enzyme inhibition % (7.5 μM)
# T1 sequence (P15428 whole entry): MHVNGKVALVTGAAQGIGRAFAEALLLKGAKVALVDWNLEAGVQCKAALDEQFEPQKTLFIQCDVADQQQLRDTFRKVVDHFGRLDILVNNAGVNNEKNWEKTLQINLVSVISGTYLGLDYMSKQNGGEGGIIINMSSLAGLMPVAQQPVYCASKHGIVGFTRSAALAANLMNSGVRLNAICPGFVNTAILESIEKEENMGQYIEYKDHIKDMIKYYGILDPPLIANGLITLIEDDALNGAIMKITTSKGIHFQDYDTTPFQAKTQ
SMILES,"Induction of 15-PGDH-luciferase reporter, in words [3]","Effect on PGE2 levels in medium, in words [4]","Inhibition of recombinant 15-PGDH, in words [6]","inhibition at […] [6, 10] [%]","inhibition at […] [6, 11] [%]",other results
"CCCCC[C@H](O)/C=C/[C@H]1[C@H](O)CC(=O)[C@@H]1C/C=C\CCCC(=O)O [PGE2, prostaglandin E2]",,,,,,"Increase in bone marrow derived colonies, in words [1]: lesser increase"
"CCCC[S+]([O-])c1sc2nc(-c3cccs3)ccc2c1N (centres unmarked) [SW206980, 2-(butylsulfinyl)-6-(thiophen-2-yl)thieno[2,3-b]pyridin-3-amine]",highly active compound in reporter induction; also recorded: activity comparable to SW033291,,,,,V9M reporter activity ([…]) [2]: 92.71%; V9M reporter activity ([…]) ([2]; 100 = doubling): 99.37%; PGE2 levels achieved [4]: 2500 pg/mL
O=C(c1ccc2nc(-c3ccccc3)c(-c3ccccc3)nc2c1)N1CCCCC1 [SW145753],increase luciferase activity,clear inhibition of 15-PGDH activity,,,,15-PGDH mRNA levels [5]: do not in general alter 15-PGDH mRNA levels
COc1ccc(OC)c(N(CC(=O)Nc2cccnc2)S(=O)(=O)c2ccc(F)cc2)c1 [SW203736],active in inducing 15-PGDH-luciferase reporter activity; also recorded: active in inducing the 15-PGDH-luciferase reporter,show activity in lowering PGE2,lesser inhibitory activity at high concentration,1.7,24.9,
COc1ccc(OC)c(N(CC(=O)Nc2cccnc2)S(=O)(=O)c2ccccc2)c1 [SW054384],increase luciferase activity,lower level of PGE2 produced; also recorded: show activity in lowering PGE2,,20.2,58.2,"IC50 fold higher than that of SW033291 ([6]; FIG. 12): 10,000 fold; Direct binding to recombinant 15-PGDH ([7]; melting temperature shift): cannot be demonstrated to bind 15-PGDH; 15-PGDH mRNA levels [5]: do not in general alter 15-PGDH mRNA levels"
COc1ccc(OC)c(N(CC(=O)N2CCOCC2)S(=O)(=O)c2ccccc2)c1 [SW125991],retains activity in induction of the 15-PGDH-luciferase reporter assay; also recorded: active in inducing the 15-PGDH-luciferase reporter,show activity in lowering PGE2,less inhibition of 15-PGDH at high compound concentration; also recorded: lesser inhibitory activity at high concentration,11.6,31.6,"Toxicity, CellTiter-Glo [8]: no toxicity; Metabolic stability, in words [9]: marked improvement in metabolic stability"
COc1ccc(S(=O)(=O)N(CC(=O)N2CCOCC2)c2cc(OC)ccc2OC)cc1 [SW207997],"activity equal to, or in some assays greater than, SW054384; also recorded: active in inducing the 15-PGDH-luciferase reporter",,much less inhibition of enzymatic activity of 15-PGDH; also recorded: lesser inhibitory activity at high concentration,-7.08,-0.86,"Reduction in levels of PGE2 in the medium, ranking ([4]; 100 nM drug, 15-PGDH activators): greatest reduction in levels of PGE2"
"CCCCC(C)(C)[C@H](O)/C=C/[C@H]1[C@H](O)CC(=O)[C@@H]1C/C=C\CCCC(=O)O [dmPGE2, 16,16-dimethyl PGE2]",,,,,,"Increase in bone marrow derived colonies, in words [1]: slightly greater increase"
"CCCC[S+]([O-])c1sc2nc(-c3nccs3)ccc2c1N (centres unmarked) [SW206992, 2-(butylsulfinyl)-6-(thiazol-2-yl)thieno[2,3-b]pyridin-3-amine]",,,,,,"V9M reporter activity ([…]) [2]: 121.75%; V9M reporter activity ([…]) ([2]; 100 = doubling): 86.44%; Concentration for Full Cell Line Reporter Induction ([3]; maximal induction of reporter, printed in uM): >1 µM; Time to inhibition (10 nM) ([6]; time needed to inhibit generation of NADH after drug is added): ~2 min; Melting temperature ([7]; 15-PGDH 10 uM, compound 20 uM, NAD(+) 100 uM, control 49): 59 degrees; PGE2 levels achieved [4]: 2100 pg/mL; Toxicity, CellTiter-Glo [8]: No effect on CellTitre-Glo levels; Toxicity ([8]; concentration needed to decrease cell numbers in a cell culture assay): >7.5 µM"
